e = 2'-O-(2-methoxyethyl) (MOE); d = 2'-deoxy (DNA)
Assays:
human CETP mRNA = experiment: Liver CETP mRNA in huCETP transgenic mice, normal chow (Example 5); type: in vivo; conditions: 50 mg/kg i.p. twice per week for 6 weeks, relative to PBS control
Experimental: Male huCETP transgenic mice were maintained on a 12-hour light/dark cycle and fed ad libitum normal Purina mouse chow. Animals were acclimated for at least 7 days in the research facility before initiation of the experiment. Antisense oligonucleotides (ASOs) were prepared in buffered saline (PBS) and sterilized by filtering through a 0.2 micron filter. Oligonucleotides were dissolved in 0.9% PBS for injection.
(§1) The mice were divided into five treatment groups. The first four groups received intraperitoneal injections of ISIS 349511, ISIS 349512, ISIS 349515, or ISIS 349517 at a dose of 50 mg/kg twice per week for 6 weeks. The fifth group received intraperitoneal injections of saline twice weekly for 6 weeks.
Twenty four hours after the final dose, the animals were sacrificed and liver tissue was isolated. Liver RNA was isolated for real-time PCR analysis of CETP. Two primer probe sets, hCETP (forward sequence […], designated herein as SEQ ID NO: 118; reverse sequence […], designated herein as SEQ ID NO: 119; probe sequence TGCGGACCGATGCCCCTGAX, designated herein as SEQ ID NO: 120) and hCETP2_LTS00182 (forward sequence […], designated herein as SEQ ID NO: 38; reverse sequence GGCTCACGCCTTTGCTGTT, designated herein as SEQ ID NO: 39: probe sequence CGGCTCGAGGTAGTGTTTACAGCCCTCX, designated herein as SEQ ID NO: 40), were used. These primer probe sets target the CETP mRNA transcript at different regions. As presented in Table 7, treatment with antisense oligonucleotides reduced CETP mRNA expression. The primer probe sets were used individually and collectively to measure CETP mRNA expression and gave similar results in all three cases. The RNA expression levels were normalized to murine Cyclophilin, a house-keeping gene, which is constitutively expressed. Cyclophilin levels were measured using the primer probe set described in Table 2. The results are expressed as percent inhibition of CETP mRNA, relative to the PBS control.

[1] = Plasma cholesterol and triglyceride levels in huApoB/huCETP/mLDLr mouse model (Example 7); type: in vivo, mice
From the text: The huApoB^+/−huCETP^+/−mLDLr^+/− mice were divided into five groups of 5-7 mice each. […] The saline-injected group served as the control group to which oligonucleotide-treated groups were compared. […] This group served a negative control for the effects of the antisense oligonucleotides against CETP. The groups are further described in Table 27, and are designated letters A-F, by which they will be referred from henceforth.
HDL and LDL cholesterol were individually measured by HPLC. Triglyceride levels were measured on weeks 0, 3 and 6 with the use of a commercially available triglyceride kit (DCL Triglyceride Reagent; Diagnostic Chemicals Ltd.).

[2] = Plasma glucose in huCETP transgenic mice (Example 5); type: in vivo; conditions: 50 mg/kg i.p. twice per week
Experimental: as §1
Plasma glucose values were determined using a Beckman Glucose Analyzer II (Beckman Coulter) by a glucose oxidase method (Lott, J. A. et al., Clin. Chem. 21: 1754-1760, 1975).

SR-B1 = experiment: Liver SR-B1 mRNA expression (Example 9); type: in vivo, mice; conditions: s.c. 6 weeks; for Percent inhibition of liver mRNA expression, SR-B1: percentage increase or decrease compared to PBS control
Experimental: Another group received subcutaneous injections of control oligonucleotide ISIS 141923 at a dose of 50 mg/kg/week for 6 weeks. One group of mice received subcutaneous injections of PBS for 6 weeks. The PBS-injected group served as the control group to which treatment groups were compared.
Liver RNA was isolated for real-time PCR analysis of ABCA1, ApoAI, and SR-B1. ATP-binding cassette transporter ABCA1 (member 1 of human transporter sub-family ABCA), also known as the cholesterol efflux regulatory protein (CERP) is a protein which in humans is encoded by the ABCA1 gene (Luciani, M. F. et al., Genomics. 1994. 21: 150-9). This transporter is a major regulator of cellular cholesterol and phospholipid homeostasis. Apolipoprotein A-I is a protein that in humans is encoded by the APOA1 gene (Breslow, J. L. et al., Proc. Natl. Acad. Sci. USA 1982. 79: 6861-5). Apolipoprotein A-I is the major protein component of HDL in plasma. The protein promotes cholesterol efflux from tissues to the liver for excretion. Scavenger receptor class B, type I (SR-BI) is an integral membrane protein found in numerous cell types/tissues, including the liver and adrenal (Acton, S. L. et al., J. Biol. Chem. 1994. 269: 21003-21009). It is best known for its role in facilitating the uptake of cholesteryl esters from high-density lipoproteins in the liver. Therefore, all three genes have a role in HDL regulation.
The primer probe set RTS1204 (forward sequence […], designated herein as SEQ ID NO: 122, reverse sequence […], designated herein as SEQ ID NO: 123, probe sequence AGGCCCAGACCTGTAAAGGCGAAGX, with X a fluorophore, designated herein as SEQ ID NO: 124) was used to measure abca1 levels. The primer probe set RTS14737 (forward sequence […], designated herein as SEQ ID NO: 125, reverse sequence […], designated herein as SEQ ID NO: 126, probe sequence CTGCAGGAACGGCTGGGCCCX, with X a fluorophore, designated herein as SEQ ID NO: 127) was used to measure apoA1 levels. The primer probe set mSRB-1 (forward sequence […], designated herein as SEQ ID NO: 128, reverse sequence ATGCGACTTGTCAGGCTGG, designated herein as SEQ ID NO: 129, probe sequence CGTGGAGAACCGCAGCCTCCATTX, with X a fluorophore, designated herein as SEQ ID NO: 130) was used to measure sr-b1 levels. The results are presented in Table 44 as percentage increase or decrease in the respective expression levels compared to the PBS control. Both primer probe sets produced similar results. The RNA expression levels were normalized to murine Cyclophilin. Treatment with ISIS 349517 caused an increase in ApoA1 and SR-B1 levels.

[3] = huApoB+/−huCETP+/−mLDLr+/− mice (Groups B-E), ASO 25 mg/kg s.c. twice/week, Week 0
[4] = huApoB+/−huCETP+/−mLDLr+/− mice (Groups B-E), ASO 25 mg/kg s.c. twice/week, Week 3
[5] = huApoB+/−huCETP+/−mLDLr+/− mice (Groups B-E), ASO 25 mg/kg s.c. twice/week, Week 6
[6] = huApoB+/−huCETP−/−mLDLr+/− mice (Group F), 25 mg/kg s.c. twice/week, Week 0
[7] = huApoB+/−huCETP−/−mLDLr+/− mice (Group F), 25 mg/kg s.c. twice/week, Week 3
[8] = huApoB+/−huCETP−/−mLDLr+/− mice (Group F), 25 mg/kg s.c. twice/week, Week 6

With “ISIS 349517: 5-10-5 MOE gapmer CAGCACTTTAATGCCAGTGG (sugars from the 5' end e5 d10 e5, backbone and methylation of C not given here)” the “Percent inhibition of liver CETP mRNA expression, Combined primer probe sets” value (human CETP mRNA) was 97%, the “Percent inhibition of liver CETP mRNA expression, Primer probe set hCETP” value (human CETP mRNA) was 99% and the “Percent inhibition of liver CETP mRNA expression, Primer probe set hCETP2_LTS00182” value (human CETP mRNA) was 95%. The “% HDL/total cholesterol” value [1, 3] was 25%, the HDL cholesterol levels [1, 3] was 48 mg/dL and the LDL cholesterol levels [1, 3] was 116 mg/dL. For the same substance, the Total cholesterol levels [1, 3] was 193 mg/dL, the Triglyceride levels [1, 3] was 142 mg/dL and the “% HDL/total cholesterol” value [1, 4] was 40%. For the same substance, the HDL cholesterol levels [1, 4] was 68 mg/dL, the LDL cholesterol levels [1, 4] was 87 mg/dL and the Total cholesterol levels [1, 4] was 171 mg/dL. The Triglyceride levels [1, 4] was 177 mg/dL, the “% HDL/total cholesterol” value [1, 5] was 37% and the HDL cholesterol levels [1, 5] was 72 mg/dL. The LDL cholesterol levels [1, 5] was 109 mg/dL, the Total cholesterol levels [1, 5] was 197 mg/dL and the Triglyceride levels [1, 5] was 210 mg/dL. For the same substance, the “% HDL/total cholesterol” value [1, 6] was 41%, the HDL cholesterol levels [1, 6] was 65 mg/dL and the LDL cholesterol levels [1, 6] was 73 mg/dL. For the same substance, the Total cholesterol levels [1, 6] was 158 mg/dL, the Triglyceride levels [1, 6] was 150 mg/dL and the “% HDL/total cholesterol” value [1, 7] was 37%. The HDL cholesterol levels [1, 7] was 65 mg/dL, the LDL cholesterol levels [1, 7] was 91 mg/dL and the Total cholesterol levels [1, 7] was 175 mg/dL. The Triglyceride levels [1, 7] was 213 mg/dL, the “% HDL/total cholesterol” value [1, 8] was 42% and the HDL cholesterol levels [1, 8] was 75 mg/dL. It also gave an LDL cholesterol levels [1, 8] of 95 mg/dL, a Total cholesterol levels [1, 8] of 177 mg/dL and a Triglyceride levels [1, 8] of 201 mg/dL. The Glucose levels ([2]; week 3) was 333 mg/dL, the Glucose levels ([2]; week 6) was 254 mg/dL and the “SR-B1 levels (liver mRNA)” value (SR-B1; huCETP transgenic mice, Western diet) was “increase”. The “Percent inhibition of liver mRNA expression, SR-B1” value (shortened to “Percent inhibition … SR-B1”) (SR-B1; Dose 1.5 mg/kg/wk) was “+33%”, the “Percent inhibition … SR-B1” value (SR-B1; Dose 5 mg/kg/wk) was “+34%” and the “Percent inhibition … SR-B1” value (SR-B1; Dose 15 mg/kg/wk) was “+50%”. The “Percent inhibition … SR-B1” value (SR-B1; Dose 50 mg/kg/wk) was “+42%”.
In the case of “ISIS 349511: 5-10-5 MOE gapmer CCCGACCTCCTTGGAGACTT (sugars from the 5' end e5 d10 e5, backbone and methylation of C not given here)”, the “Percent inhibition of liver CETP mRNA expression, Combined primer probe sets” value (human CETP mRNA) is reported as 88%, the “Percent inhibition of liver CETP mRNA expression, Primer probe set hCETP” value (human CETP mRNA) is reported as 90% and the “Percent inhibition of liver CETP mRNA expression, Primer probe set hCETP2_LTS00182” value (human CETP mRNA) is reported as 86%. The “% HDL/total cholesterol” value [1, 3] was 24%, the HDL cholesterol levels [1, 3] was 49 mg/dL and the LDL cholesterol levels [1, 3] was 129 mg/dL. The Total cholesterol levels [1, 3] was 208 mg/dL, the Triglyceride levels [1, 3] was 145 mg/dL and the “% HDL/total cholesterol” value [1, 4] was 30%. The HDL cholesterol levels [1, 4] was 64 mg/dL, the LDL cholesterol levels [1, 4] was 126 mg/dL and the Total cholesterol levels [1, 4] was 212 mg/dL. The Triglyceride levels [1, 4] was 199 mg/dL, the “% HDL/total cholesterol” value [1, 5] was 35% and the HDL cholesterol levels [1, 5] was 77 mg/dL. The LDL cholesterol levels [1, 5] was 132 mg/dL, the Total cholesterol levels [1, 5] was 223 mg/dL and the Triglyceride levels [1, 5] was 248 mg/dL. For the same substance, the Glucose levels ([2]; week 3) was 286 mg/dL and the Glucose levels ([2]; week 6) was 245 mg/dL.
With “ISIS 141923: CCTTCCCTGAAGGTTCCTCC, 5-10-5 MOE gapmer, a control oligonucleotide which has no known murine target (sugars from the 5' end e5 d10 e5, backbone and methylation of C not given here) [reference compound]” the “% HDL/total cholesterol” value [1, 3] was 25%, the HDL cholesterol levels [1, 3] was 50 mg/dL and the LDL cholesterol levels [1, 3] was 123 mg/dL. The Total cholesterol levels [1, 3] was 201 mg/dL, the Triglyceride levels [1, 3] was 137 mg/dL and the “% HDL/total cholesterol” value [1, 4] was 24%. For the same substance, the HDL cholesterol levels [1, 4] was 55 mg/dL, the LDL cholesterol levels [1, 4] was 149 mg/dL and the Total cholesterol levels [1, 4] was 228 mg/dL. The Triglyceride levels [1, 4] was 177 mg/dL, the “% HDL/total cholesterol” value [1, 5] was 31% and the HDL cholesterol levels [1, 5] was 74 mg/dL. For the same substance, the LDL cholesterol levels [1, 5] was 150 mg/dL, the Total cholesterol levels [1, 5] was 235 mg/dL and the Triglyceride levels [1, 5] was 192 mg/dL. The “Percent inhibition … SR-B1” value (SR-B1; Dose 50 mg/kg/wk) was “+37%”.
